Values quoted from earlier work, collected in patent US10799486B2 (NORTIC HOLDINGS INC., priority 2016, dated 2020).

Legend:
[1] = oral administration
[2] = nimodipine-treated subarachnoid hemorrhage (SAH) patients

half-life equivalent to earlier elimination rates ([1]; man): 1 to 2 h
Cmax in patients with hepatic cirrhosis versus normal ([1]; hepatic cirrhosis): approximately double that in normal
concentration detected in the cerebrospinal fluid [2]: ≤ 12.5 ng/mL
SMILES: COCCOC(=O)C1=C(C)NC(C)=C(C(=O)OC(C)C)C1c1cccc([N+](=O)[O-])c1 (stereo not drawn) [nimodipine, isopropyl 2-methoxyethyl 1,4-dihydro-2,6-dimethyl-4-(m-nitrophenyl)-3,5-pyridinedicarboxylate]
